Assay [1] deals with T1, human adenosine A1 receptor (Homo sapiens, UniProt P30542).
T1 construct: expressed in transfected cells; host or cells: HEK293 cells infected with BacMam (the same paragraph also labels the preparation CHO-hA1)
T1 sequence (P30542 1-326): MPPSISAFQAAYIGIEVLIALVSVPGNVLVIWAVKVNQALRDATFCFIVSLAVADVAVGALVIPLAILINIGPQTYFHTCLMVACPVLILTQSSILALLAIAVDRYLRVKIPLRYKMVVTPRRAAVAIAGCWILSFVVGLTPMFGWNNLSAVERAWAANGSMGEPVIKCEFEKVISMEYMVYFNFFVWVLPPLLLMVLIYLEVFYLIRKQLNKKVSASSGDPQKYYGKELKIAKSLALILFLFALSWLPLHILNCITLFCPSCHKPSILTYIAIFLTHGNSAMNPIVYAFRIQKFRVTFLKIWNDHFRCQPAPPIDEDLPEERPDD
In words: Inhibition binding assay, human adenosine A1 receptor membranes, [3H]DPCPX. Particulars: 1 nM [3H]DPCPX, 25° C., 1 h; IC50 converted to Ki with Cheng-Prusoff; read-out: A1 pKi (converted). In outline: (§1)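 Membranes from BacMam-infected HEK293 cells (0.2 μg A2A, 1.4 μg A1) incubated 1 h at 25° C with test compound and 1 nM [3H]ZM241385 (A2A; 50 mM Tris-HCl pH 7.4) or [3H]DPCPX (A1; plus 100 mM NaCl, 10 mM MgCl2). Nonspecific: 1 μM CGS15943 or DPCPX. Filtration, scintillation; IC50 converted to Ki via Cheng-Prusoff.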

The target of assay [2] is T2, human adenosine A2A receptor (Homo sapiens, UniProt P29274).
T2 construct: expressed in transfected cells; host or cells: HEK293 cells infected with BacMam
T2 sequence (P29274 whole entry): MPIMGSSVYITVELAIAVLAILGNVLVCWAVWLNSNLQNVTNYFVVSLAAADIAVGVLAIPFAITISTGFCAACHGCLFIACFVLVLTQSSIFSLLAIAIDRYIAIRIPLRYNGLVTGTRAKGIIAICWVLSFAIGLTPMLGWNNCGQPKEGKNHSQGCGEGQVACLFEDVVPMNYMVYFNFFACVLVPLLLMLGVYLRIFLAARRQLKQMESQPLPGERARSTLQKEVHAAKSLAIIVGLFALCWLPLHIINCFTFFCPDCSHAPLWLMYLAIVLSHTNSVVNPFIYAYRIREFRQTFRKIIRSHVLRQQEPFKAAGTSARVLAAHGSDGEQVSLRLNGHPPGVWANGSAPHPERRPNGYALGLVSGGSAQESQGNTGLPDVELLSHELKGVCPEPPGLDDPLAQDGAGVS
In words: Inhibition binding assay, human adenosine A2A receptor membranes, [3H]ZM241385. As to conditions: 1 nM [3H]ZM241385, HEK293-hA2A membranes, 25° C., 1 h; IC50 converted to Ki with Cheng-Prusoff; read-out: A2A pKi (converted). The procedure, abridged: as §1

The target of assay [3] is T3, human CB-1 cannabinoid receptor (Homo sapiens, UniProt P21554).
T3 construct: expressed in transfected cells; host or cells: CHO cells
T3 sequence (P21554 whole entry): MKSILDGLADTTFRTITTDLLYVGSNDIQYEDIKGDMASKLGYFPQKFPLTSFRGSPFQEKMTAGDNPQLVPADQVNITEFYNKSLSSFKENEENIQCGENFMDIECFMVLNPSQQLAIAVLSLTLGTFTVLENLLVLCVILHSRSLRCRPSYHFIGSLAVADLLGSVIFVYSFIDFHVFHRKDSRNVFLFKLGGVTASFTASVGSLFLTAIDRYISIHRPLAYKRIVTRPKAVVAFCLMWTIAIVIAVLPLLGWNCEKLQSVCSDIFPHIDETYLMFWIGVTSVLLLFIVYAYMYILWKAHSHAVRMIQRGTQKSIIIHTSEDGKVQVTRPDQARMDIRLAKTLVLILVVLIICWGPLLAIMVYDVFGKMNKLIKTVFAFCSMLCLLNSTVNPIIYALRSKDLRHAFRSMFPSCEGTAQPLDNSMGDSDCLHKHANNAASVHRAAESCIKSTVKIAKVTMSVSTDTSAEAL
The assay is described as follows: CB1 receptor radioligand binding assay, [3H]CP 55940, transfected CHO cell membranes. Particulars: 0.5 nM [3H]CP 55940, CHO membrane homogenates, 120 min at 37° C. On the procedure: Nonspecific binding is determined in the presence of 10 μM WIN 55212-2.
Following incubation, the samples are filtered rapidly under vacuum through glass fiber filters (GF/B, Packard) presoaked with 0.3% PEI and rinsed several times with an ice-cold buffer containing 50 mM Tris-HCl (pH 7.4) and 0.5% BSA using a 96-sample cell harvester (Unifilter, Packard). The filters are dried then counted for radioactivity in a scintillation counter (Topcount, Packard) using a scintillation cocktail (Microscint 0, Packard).
The standard reference compound is CP 55940 which is tested in each experiment at several concentrations to obtain a competition curve from which its IC50 is calculated.

Assay [4] deals with T4, human CB1 receptor (Homo sapiens, UniProt P21554).
T4 construct: expressed in transfected cells; host or cells: CHO cells
T4 sequence (P21554 whole entry): as above
The assay is described as follows: CB1 receptor antagonism, agonist-induced cAMP modulation (HTRF) in transfected CHO cells. Format: cell-based. As to conditions: read-out: Antag IC50. On the procedure:
Receptor antagonism: Evaluation of the antagonist activity of compounds at the human CB1 receptor expressed in transfected CHO cells, determined by measuring their effects on agonist-induced cAMP modulation using the HTRF detection method.
Thereafter, the reference agonist CP 55940 and the adenylyl cyclase activator NKH 477 are added at respective final concentrations of 3 nM and 3 μM.
For basal control measurements, CP 55940 is omitted from the wells containing 3 μM AM 281.
Following 20 min incubation at 37° C., the cells are lysed and the fluorescence acceptor (D2-labeled cAMP) and fluorescence donor (anti-cAMP antibody labeled with europium cryptate) are added.
After 60 min at room temperature, the fluorescence transfer is measured at λex=337 nm and λem=620 and 665 nm using a microplate reader (Rubystar, BMG). The cAMP concentration is determined by dividing the signal measured at 665 nm by that measured at 620 nm (ratio).
The standard reference antagonist is AM 281, which is tested in each experiment at several concentrations to generate a concentration-response curve from which its IC50 value is calculated.

By IC50 is commonly meant the concentration that inhibits the measured activity by half. As for `COc1ncccc1Cn1nc2c(-c3cc(C)nc(CO)c3)c(-c3ccccc3)nc(N)n2c1=O` [Example 1-57, 5-amino-8-[2-(hydroxymethyl)-6-methyl-4-pyridyl]-2-[(2-methoxy-3-pyridyl)methyl]-7-phenyl-[1,2,4]triazolo[4,3-c]pyrimidin-3-one], the Ki in assay [1] is 0.126 µM; in assay [2], 0.000631 µM; in assay [3], 62.6 µM. In assay [4], the IC50 was above 100 µM.

In the case of `COc1cc(-c2c(-c3ccccc3)nc(N)n3c(=O)n(Cc4ccc(F)c(N)n4)nc23)cc(CO)n1` [Example 1-64, 5-amino-2-[(6-amino-5-fluoro-2-pyridyl)methyl]-8-[2-(hydroxymethyl)-6-methoxy-4-pyridyl]-7-phenyl-[1,2,4]triazolo[4,3-c]pyrimidin-3-one], the values for the Ki in assay [1], in assay [2] and in assay [3] were 0.158 µM, 0.000316 µM and 23.5 µM, respectively. Moreover, the half-maximal inhibitory concentration (IC50) in assay [4] is above 100 µM.

On to `COc1cc(-c2c(-c3ccccc3)nc(N)n3c(=O)n(Cc4ccc(Cl)cn4)nc23)cc(CO)n1` [Example 1-65, 5-amino-2-[(5-chloro-2-pyridyl)methyl]-8-[2-(hydroxymethyl)-6-methoxy-4-pyridyl]-7-phenyl-[1,2,4]triazolo[4,3-c]pyrimidin-3-one], for which the Ki is 0.794 µM in assay [1], 0.000794 µM in assay [2] and 19.9 µM in assay [3]. The half-inhibitory concentration (IC50) in assay [4] was found to be 9.3 µM.

With `Nc1nc(Cn2nc3c(-c4cc(Cl)nc(CO)c4)c(-c4ccccc4)nc(N)n3c2=O)ccc1F` [Example 1-70, 5-amino-2-[(6-amino-5-fluoro-2-pyridyl)methyl]-8-[2-chloro-6-(hydroxymethyl)-4-pyridyl]-7-phenyl-[1,2,4]triazolo[4,3-c]pyrimidin-3-one], the figures for the Ki in assay [1], in assay [2] and in assay [3] were 0.0501 µM, 0.000316 µM and 61.3 µM, respectively. Further, the IC50 in assay [4] was above 100 µM.

Consider `Cc1cc(-c2c(-c3ccccc3)nc(N)n3c(=O)n(Cc4ccc(F)cn4)nc23)cc(N2CCC2)n1` [Example 1-75, 5-amino-8-[2-(azetidin-1-yl)-6-methyl-4-pyridyl]-2-[(5-fluoro-2-pyridyl)methyl]-7-phenyl-[1,2,4]triazolo[4,3-c]pyrimidin-3-one], for which the results for the Ki in assay [1], in assay [2] and in assay [3] were 0.126 µM, 0.00316 µM and 39.1 µM, respectively. Also, in assay [4], the IC50 came to 17.9 µM.

Consider `Cc1cc(-c2c(-c3ccccc3)nc(N)n3c(=O)n(CCc4ccccc4)nc23)cc(C)n1` [Example 1-80, 5-amino-8-(2,6-dimethyl-4-pyridyl)-7-phenyl-2-(2-phenylethyl)-[1,2,4]triazolo[4,3-c]pyrimidin-3-one], for which the figures for the Ki in assay [1], in assay [2] and in assay [3] were 0.126 µM, 0.002 µM and 10.8 µM, respectively. The half-inhibitory concentration (IC50) in assay [4] came to 10.2 µM.

For `Cc1cc(-c2c(-c3ccccc3)nc(N)n3c(=O)n(C[C@@H]4COCCN4Cc4ccccc4)nc23)cc(C)n1` [Example 1-101, 5-amino-2-[[(3R)-4-benzylmorpholin-3-yl]methyl]-8-(2,6-dimethyl-4-pyridyl)-7-phenyl-[1,2,4]triazolo[4,3-c]pyrimidin-3-one], the values for the Ki in assay [1], in assay [2] and in assay [3] were 0.01 µM, 0.000631 µM and 4 µM, respectively. Further, the half-inhibitory concentration (IC50) in assay [4] was 2.7 µM.

`Cc1cc(-c2c(-c3ccccc3)nc(N)n3c(=O)n(CCC(F)(F)F)nc23)cc(C)n1` [Example 2-6, 5-amino-8-(2,6-dimethyl-4-pyridyl)-7-phenyl-2-(3,3,3-trifluoropropyl)-[1,2,4]triazolo[4,3-c]pyrimidin-3-one]: the Ki in assay [1] is 0.501 µM; in assay [2] it was 0.002 µM; in assay [3] it was 22 µM. Moreover, the IC50 in assay [4] is 26.5 µM.

With `Cc1cc(-c2c(-c3ccccc3)nc(N)n3c(=O)n(CC4CCC(F)(F)C4)nc23)cc(C)n1` (stereo not shown) [Example 2-26, 5-amino-2-[(3,3-difluorocyclopentyl)methyl]-8-(2,6-dimethyl-4-pyridyl)-7-phenyl-[1,2,4]triazolo[4,3-c]pyrimidin-3-one], the Ki is 0.1 µM in assay [1], 0.000398 µM in assay [2] and 3.9 µM in assay [3]. Besides, the IC50 in assay [4] came to 3.5 µM.

On to `Cc1cc(-c2c(-c3ccccc3)nc(N)n3c(=O)n(CCOC(F)(F)F)nc23)cc(C)n1` [Example 2-30, 5-amino-8-(2,6-dimethyl-4-pyridyl)-7-phenyl-2-[2-(trifluoromethoxy)ethyl]-[1,2,4]triazolo[4,3-c]pyrimidin-3-one], for which the Ki in assay [1] is 0.251 µM; in assay [2], 0.00251 µM; in assay [3] it was 26.5 µM. For the same molecule, in assay [4], the IC50 worked out at 19.5 µM.

Turning to `Cc1cc(-c2c(-c3ccc(F)cn3)nc(N)n3c(=O)n(CCC(F)(F)F)nc23)cc(C)n1` [Example 2-40, 5-amino-8-(2,6-dimethyl-4-pyridyl)-7-(5-fluoro-2-pyridyl)-2-(3,3,3-trifluoropropyl)-[1,2,4]triazolo[4,3-c]pyrimidin-3-one], the Ki is above 3.16 µM in assay [1], 0.0398 µM in assay [2] and 75.7 µM in assay [3]. The half-inhibitory concentration (IC50) in assay [4] is above 100 µM.

As for `Cc1cc(-c2c(-c3ccccc3)nc(N)n3c(=O)n(CCC(F)(F)F)nc23)cc(CO)n1` [Example 2-51, 5-amino-8-[2-(hydroxymethyl)-6-methyl-4-pyridyl]-7-phenyl-2-(3,3,3-trifluoropropyl)-[1,2,4]triazolo[4,3-c]pyrimidin-3-one], the Ki in assay [1] was 0.501 µM; in assay [2], 0.00126 µM; in assay [3], 85 µM. Further, in assay [4], the IC50 is above 100 µM.

Turning to `Nc1nc(-c2ccccc2)c(-c2cc(CO)nc(C(F)(F)F)c2)c2nn(CCC(F)(F)F)c(=O)n12` [Example 2-53, 5-amino-8-[2-(hydroxymethyl)-6-(trifluoromethyl)-4-pyridyl]-7-phenyl-2-(3,3,3-trifluoropropyl)-[1,2,4]triazolo[4,3-c]pyrimidin-3-one], the Ki is 0.501 µM in assay [1], 0.00126 µM in assay [2] and 37.7 µM in assay [3]. Moreover, the half-inhibitory concentration (IC50) in assay [4] was above 100 µM.

Take `Cc1cc(-c2c(-c3ccccc3)nc(N)n3c(=O)n(C4CCCN(C(=O)OC(C)(C)C)C4)nc23)cc(C)n1` (stereo not shown) [Example 2-54, tert-butyl 3-[5-amino-8-(2,6-dimethyl-4-pyridyl)-3-oxo-7-phenyl-[1,2,4]triazolo[4,3-c]pyrimidin-2-yl]piperidine-1-carboxylate]: the values for the Ki in assay [1], in assay [2] and in assay [3] were 0.398 µM, 0.00631 µM and 8.2 µM, respectively. The IC50 in assay [4] was determined as 1.1 µM.

On to `Cc1cc(-c2c(-c3ccccc3)nc(N)n3c(=O)n(CC(C)C)nc23)cc(C)[n+]1[O-]` [Example 2-57, 5-amino-8-(2,6-dimethyl-1-oxido-pyridin-1-ium-4-yl)-2-isobutyl-7-phenyl-[1,2,4]triazolo[4,3-c]pyrimidin-3-one], for which the Ki in assay [1] was 0.251 µM; in assay [2] it was 0.01 µM; in assay [3], 72.7 µM. The IC50 in assay [4] was above 100 µM.

For `Cc1cc(-c2c(-c3ccccc3)nc(N)n3c(=O)n(CC45C6C7C4C4C5C6C74F)nc23)cc(CO)n1` (stereo not shown) [Example 2-60, 5-amino-2-[(4-fluorocuban-1-yl)methyl]-8-[2-(hydroxymethyl)-6-methyl-4-pyridyl]-7-phenyl-[1,2,4]triazolo[4,3-c]pyrimidin-3-one], the values for the Ki in assay [1], in assay [2] and in assay [3] were 0.2 µM, 0.00794 µM and 14.6 µM, respectively. The IC50 in assay [4] is 2.4 µM.

For the origin of these results see patent US12528815B2, “5-amino-8-(4-pyridyl)-[1,2,4]triazolo[4,3-c]pyrimidin-3-one compounds for use against cancer” (Nxera Pharma UK Limited, priority 2020, dated 2026).
